For 28 compounds, IC50 results are on record in patent US20080004253A1, “Thiazolopyrimidine modulators of TRPV1” (priority 2006, published 2008).

The target in one assay is T1, rat TRPV1 (Rattus norvegicus, UniProt O35433).
T1 construct: expressed in transfected cells; host or cells: HEK293 (rTRPV1/HEK293), geneticin selection
The assay can be described thus: Functional assay: block of capsaicin-induced Ca2+ influx, rat assay (rTRPV1/HEK293, FLIPR). It is filed as cell-based. The note with it: rTRPV1/HEK293 cells, capsaicin challenge, Fluo-3 fluorescence; mean; > value = solubility limit in assay medium. The method in brief:
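Compounds, as free base or TFA salt, tested from 10 μM in three-fold steps on rTRPV1-transfected HEK293 cells, with 30 min preincubation in low-calcium (20 μM) buffer. Capsaicin-evoked Ca2+ influx measured by FLIPR fluo3 signal before and 100 s after addition. Averaged IC50 from non-linear fits.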

The next assay has as its target T2, human TRPV1 (Homo sapiens, UniProt Q8NER1).
T2 construct: expressed in transfected cells; host or cells: HEK293 (hTRPV1/HEK293), zeocin selection
The assay can be described thus: Functional assay: block of capsaicin-induced Ca2+ influx, human assay (hTRPV1/HEK293, FLIPR). The following applies: hTRPV1/HEK293 cells, 150 nM capsaicin challenge, Fluo-3 fluorescence; mean; > value = solubility limit in assay medium. The format is cell-based. The method in brief: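 HEK293 cells stably expressing human TRPV1, fluo3-loaded, preincubated 30 min with compound (serial 3-fold dilutions from 10 μM, duplicate) in 20 μM Ca2+ buffer. Capsaicin response taken as fluo3 fluorescence change before vs 100 s after agonist; IC50 by non-linear regression, mean values; free base or TFA salt.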

T2 sequence (Q8NER1 whole entry): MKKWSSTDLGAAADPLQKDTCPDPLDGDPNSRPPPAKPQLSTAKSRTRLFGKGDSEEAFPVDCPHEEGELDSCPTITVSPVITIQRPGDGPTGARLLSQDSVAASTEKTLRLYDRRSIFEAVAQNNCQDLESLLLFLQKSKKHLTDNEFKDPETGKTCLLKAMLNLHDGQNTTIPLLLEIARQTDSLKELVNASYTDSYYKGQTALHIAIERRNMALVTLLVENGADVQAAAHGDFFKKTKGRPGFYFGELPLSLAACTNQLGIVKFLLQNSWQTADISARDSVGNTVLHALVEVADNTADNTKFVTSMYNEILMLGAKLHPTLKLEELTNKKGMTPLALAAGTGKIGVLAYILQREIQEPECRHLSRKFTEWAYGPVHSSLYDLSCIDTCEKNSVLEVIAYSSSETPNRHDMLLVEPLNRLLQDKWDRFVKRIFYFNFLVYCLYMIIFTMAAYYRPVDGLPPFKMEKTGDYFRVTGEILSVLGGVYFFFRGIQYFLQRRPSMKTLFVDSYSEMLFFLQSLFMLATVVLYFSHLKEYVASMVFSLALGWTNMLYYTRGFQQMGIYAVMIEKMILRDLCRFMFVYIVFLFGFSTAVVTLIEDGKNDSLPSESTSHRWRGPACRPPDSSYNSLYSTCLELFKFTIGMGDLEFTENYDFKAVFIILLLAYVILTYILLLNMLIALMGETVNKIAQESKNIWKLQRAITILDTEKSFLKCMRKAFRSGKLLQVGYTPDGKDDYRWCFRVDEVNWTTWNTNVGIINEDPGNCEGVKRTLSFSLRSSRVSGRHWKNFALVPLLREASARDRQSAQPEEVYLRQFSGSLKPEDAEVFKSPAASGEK
T1 sequence (O35433 whole entry): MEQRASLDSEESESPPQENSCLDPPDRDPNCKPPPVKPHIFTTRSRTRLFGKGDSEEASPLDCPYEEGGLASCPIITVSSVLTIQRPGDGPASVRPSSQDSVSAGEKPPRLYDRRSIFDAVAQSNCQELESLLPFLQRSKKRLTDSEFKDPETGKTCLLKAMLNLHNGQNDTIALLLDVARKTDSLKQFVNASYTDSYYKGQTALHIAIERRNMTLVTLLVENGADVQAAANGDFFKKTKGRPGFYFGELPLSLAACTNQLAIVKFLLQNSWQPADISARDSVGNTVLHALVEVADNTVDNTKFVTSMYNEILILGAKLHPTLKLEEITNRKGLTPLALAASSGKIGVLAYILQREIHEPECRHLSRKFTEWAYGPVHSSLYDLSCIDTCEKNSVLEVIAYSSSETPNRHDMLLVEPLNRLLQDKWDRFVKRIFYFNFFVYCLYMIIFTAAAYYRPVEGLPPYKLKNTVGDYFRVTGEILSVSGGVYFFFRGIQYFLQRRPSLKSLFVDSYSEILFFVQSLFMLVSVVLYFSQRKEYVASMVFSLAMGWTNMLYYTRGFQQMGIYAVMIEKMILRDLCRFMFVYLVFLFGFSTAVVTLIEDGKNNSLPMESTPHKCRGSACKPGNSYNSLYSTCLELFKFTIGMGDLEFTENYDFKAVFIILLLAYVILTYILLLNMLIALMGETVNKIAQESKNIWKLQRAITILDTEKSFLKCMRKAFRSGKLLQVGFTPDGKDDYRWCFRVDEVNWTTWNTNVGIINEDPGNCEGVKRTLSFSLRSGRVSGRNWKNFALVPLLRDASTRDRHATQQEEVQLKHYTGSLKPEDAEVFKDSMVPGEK

`CS(=O)(=O)c1ccc(Nc2nc(NCC3CC3)nc3sc(Nc4c(Cl)cccc4Cl)nc23)cc1` [Example 184, N^5-Cyclopropylmethyl-N^2-(2,6-dichloro-phenyl)-N^7-(4-methanesulfonyl-phenyl)-thiazolo[5,4-d]pyrimidine-2,5,7-triamine]: the IC50 turned out to be 5 nM against rat TRPV1 and 8 nM on human TRPV1.
For `Cc1nc(Nc2ccc(SC(C)C)cc2)c2nc(Nc3c(C)cccc3C)sc2n1` [Example 106, N^2-(2,6-Dimethyl-phenyl)-N^7-(4-isopropylsulfanyl-phenyl)-5-methyl-thiazolo[5,4-d]pyrimidine-2,7-diamine] the same measures were 26 nM and 25 nM.
The like results for `COC(=O)C(C)(C)c1ccc(Nc2ncnc3sc(Nc4c(Cl)cccc4Cl)nc23)cc1` [Example 229, Methyl 2-[4-({2-[(2,6-dichlorophenyl)amino][1,3]thiazolo[5,4-d]pyrimidin-7-yl}amino)phenyl]-2-methylpropanoate] were, in that order, 71 nM and 139 nM.
For `CN(C)S(=O)(=O)c1ccc(Nc2ncnc3sc(Nc4ccccc4Cl)nc23)cc1` [Example 113, 4-[2-(2-Chloro-phenylamino)-thiazolo[5,4-d]pyrimidin-7-ylamino]-N,N-dimethyl-benzenesulfonamide] the same measures were 17 nM and 38 nM.
On to `NCc1cc(Cl)c(Nc2nc3c(Nc4ccc(C(F)(F)F)cc4)ncnc3s2)c(Cl)c1` [Example 240, N^2-(4-Aminomethyl-2,6-dichloro-phenyl)-N^7-(4-trifluoromethyl-phenyl)-thiazolo[5,4-d]pyrimidine-2,7-diamine], for which the half-inhibitory concentration (IC50) at rat TRPV1 came out at 61 nM; on human TRPV1, 154 nM.
Consider `Cc1cccc(C)c1Nc1nc2c(Nc3ccc(C(F)(F)F)cn3)ncnc2s1` [Example 176, N^2-(2,6-Dimethyl-phenyl)-N^7-(5-trifluoromethyl-pyridin-2-yl)-thiazolo[5,4-d]pyrimidine-2,7-diamine], for which the IC50 against rat TRPV1 and at human TRPV1 was greater than 20000 nM throughout.
Consider `CC(C)C1CCCN1c1nc(Nc2ccc(C(F)(F)F)cc2)c2nc(Nc3c(Cl)cccc3Cl)sc2n1` (racemic) [Example 89, (racemic)-N^2-(2,6-Dichloro-phenyl)-5-(2-isopropyl-pyrrolidin-1-yl)-N^7-(4-trifluoromethyl-phenyl)-thiazolo[5,4-d]pyrimidine-2,7-diamine], for which the half-maximal inhibitory concentration (IC50) amounted to 2 nM on rat TRPV1 and 7 nM on human TRPV1.
Consider `CN[C@@H]1CCN(c2nc(Nc3ccc(C(F)(F)F)cc3)c3nc(Nc4c(Cl)cccc4Cl)sc3n2)C1` [Example 183, (3R)-N^2-(2,6-Dichloro-phenyl)-5-(3-methylamino-pyrrolidin-1-yl)-N^7-(4-trifluoromethyl-phenyl)-thiazolo[5,4-d]pyrimidine-2,7-diamine], for which the values for the half-maximal inhibitory concentration (IC50) against rat TRPV1 and against human TRPV1 were greater than 20000 nM and 13600 nM, respectively.
Turning to `Oc1ccc(Nc2ncnc3sc(Nc4c(Cl)cccc4Cl)nc23)cc1O` [Example 227, 4-({2-[(2,6-Dichlorophenyl)amino][1,3]thiazolo[5,4-d]pyrimidin-7-yl}amino)benzene-1,2-diol], the IC50 against rat TRPV1 and against human TRPV1 was greater than 6670 nM in each case.
In the case of `CS(=O)(=O)c1ccc(Nc2ncnc3sc(Nc4ccccc4C(F)(F)F)nc23)cc1` [Example 226, N^7-[4-(Methylsulfonyl)phenyl]-N^2-[2-(trifluoromethyl)phenyl][1,3]thiazolo[5,4-d]pyrimidine-2,7-diamine], the IC50 was determined as 135 nM at rat TRPV1 and 567 nM on human TRPV1.
Regarding `Cc1nc(Nc2ccc(S(=O)(=O)N(C)C)cc2)c2nc(Nc3c(C)cccc3C)sc2n1` [Example 85, 4-[2-(2,6-Dimethyl-phenylamino)-5-methyl-thiazolo[5,4-d]pyrimidin-7-ylamino]-N,N-dimethyl-benzenesulfonamide], the IC50 against rat TRPV1 stood at 3 nM; at human TRPV1, 4 nM.
The like results for `Cc1noc(C)c1Nc1nc2c(Nc3ccc(C(C)(C)C)cc3)ncnc2s1` [Example 51, N^7-(4-tert-Butyl-phenyl)-N^2-(3,5-dimethyl-isoxazol-4-yl)-thiazolo[5,4-d]pyrimidine-2,7-diamine] were, in that order, 34 nM and 223 nM.
Turning to `Cc1nc(Nc2ccc(S(=O)(=O)N3CCCC3)cc2)c2nc(Nc3c(C)cccc3C)sc2n1` [Example 92, N^2-(2,6-Dimethyl-phenyl)-5-methyl-N^7-[4-(pyrrolidine-1-sulfonyl)-phenyl]-thiazolo[5,4-d]pyrimidine-2,7-diamine], the IC50 stood at 2 nM against rat TRPV1 and 8 nM on human TRPV1.
On to `O=S(=O)(c1ccc(Nc2ncnc3sc(Nc4c(Cl)cncc4Cl)nc23)cc1)N1CCCC1` [Example 214, N^2-(3,5-Dichloro-pyridin-4-yl)-N^7-[4-(pyrrolidine-1-sulfonyl)-phenyl]thiazolo[5,4-d]pyrimidine-2,7-diamine], for which the half-inhibitory concentration (IC50) on rat TRPV1 stood at 240 nM; on human TRPV1 it was 907 nM.
For `Cc1cccc(C)c1Nc1nc2c(Nc3ccc(C#N)c(Cl)c3)ncnc2s1` [Example 142, 2-Chloro-4-[2-(2,6-dimethyl-phenylamino)-thiazolo[5,4-d]pyrimidin-7-ylamino]-benzonitrile], the IC50 against rat TRPV1 was 231 nM; against human TRPV1, 394 nM.
For `Cc1ccc(Nc2ncnc3sc(Nc4c(C)cccc4C)nc23)cc1O` [Example 160, 5-[2-(2,6-Dimethyl-phenylamino)-thiazolo[5,4-d]pyrimidin-7-ylamino]-2-methyl-phenol] the same measures were greater than 6670 nM and 2990 nM.
For `Cc1ccc(Nc2nc(C)nc3sc(Nc4c(C)cccc4C)nc23)cc1` [Example 138, N^2-(2,6-Dimethyl-phenyl)-5-methyl-N^7-p-tolyl-thiazolo[5,4-d]pyrimidine-2,7-diamine] the same measures were 128 nM and 271 nM.
For `FC(F)(F)c1ccc(Nc2nc(N3CCNCC3)nc3sc(Nc4c(Cl)cccc4Cl)nc23)cc1Cl` [Example 162, N^7-(3-Chloro-4-trifluoromethyl-phenyl)-N^2-(2,6-dichloro-phenyl)-5-piperazin-1-yl-thiazolo[5,4-d]pyrimidine-2,7-diamine] the same measures were 3080 nM and 4280 nM.
Regarding `FC(F)(F)c1ccc(Nc2nc(N3CCC3)nc3sc(Nc4c(Cl)cccc4Cl)nc23)cc1` [Example 59, 5-Azetidin-1-yl-N^2-(2,6-dichloro-phenyl)-N^7-(4-trifluoromethyl-phenyl)-thiazolo[5,4-d]pyrimidine-2,7-diamine], the IC50 on rat TRPV1 came out at 22 nM; at human TRPV1, 63 nM.
For `FC(F)(F)c1ccc(Nc2ncnc3sc(Nc4c(Cl)cncc4Cl)nc23)cc1` [Example 72, N^2-(3,5-Dichloro-pyridin-4-yl)-N^7-(4-trifluoromethyl-phenyl)-thiazolo[5,4-d]pyrimidine-2,7-diamine] the same measures were 627 nM and 740 nM.
The like results for `Cc1ccc(CNc2ncnc3sc(Nc4c(C)cccc4C)nc23)o1` [Example 47, N^2-(2,6-Dimethyl-phenyl)-N^7-(5-methyl-furan-2-ylmethyl)-thiazolo[5,4-d]pyrimidine-2,7-diamine] were, in that order, greater than 6670 nM and greater than 6670 nM.
For `FC(F)(F)c1ccc(Nc2ncnc3sc(Nc4c(Cl)cccc4Cl)nc23)cc1Cl` [Example 4, N^7-(3-Chloro-4-trifluoromethyl-phenyl)-N^2-(2,6-dichloro-phenyl)-thiazolo[5,4-d]pyrimidine-2,7-diamine] the same measures were 8 nM and 15 nM.
On to `Cc1cccc(C)c1Nc1nc2c(Nc3ccc(NS(C)(=O)=O)cc3)ncnc2s1` [Example 175, N-{4-[2-(2,6-Dimethyl-phenylamino)-thiazolo[5,4-d]pyrimidin-7-ylamino]-phenyl}-methanesulfonamide], for which the IC50 on rat TRPV1 and at human TRPV1 was greater than 20000 nM in each case.
Take `FC(F)(F)c1ccc(Nc2nc(N3CCCC3)nc3sc(Nc4c(Cl)cccc4Cl)nc23)cc1` [Example 58, N^2-(2,6-Dichloro-phenyl)-5-pyrrolidin-1-yl-N^7-(4-trifluoromethyl-phenyl)-thiazolo[5,4-d]pyrimidine-2,7-diamine]: the IC50 was determined as 48 nM against rat TRPV1 and 15 nM against human TRPV1.
In the case of `Cc1nc(Nc2ccc(C(F)(F)F)nc2)c2nc(Nc3c(Cl)cccc3Cl)sc2n1` [Example 6, N^2-(2,6-Dichloro-phenyl)-5-methyl-N^7-(6-trifluoromethyl-pyridin-3-yl)-thiazolo[5,4-d]pyrimidine-2,7-diamine], the IC50 on rat TRPV1 was 1 nM; at human TRPV1 it was 5 nM.
For the compound `CC(C)Nc1nc(Nc2ccc(C(F)(F)F)cc2)c2nc(Nc3c(Cl)cccc3Cl)sc2n1` [Example 101, N^2-(2,6-Dichloro-phenyl)-N^5-isopropyl-N^7-(4-trifluoromethyl-phenyl)-thiazolo[5,4-d]pyrimidine-2,5,7-triamine], the figures for the IC50 at rat TRPV1 and at human TRPV1 were 12 nM and 18 nM, respectively.
For `Cc1cccnc1Nc1nc2c(Nc3ccc(C(F)(F)F)cc3)ncnc2s1` [Example 213, N^2-(3-Methyl-pyridin-2-yl)-N^7-(4-trifluoromethyl-phenyl)-thiazolo[5,4-d]pyrimidine-2,7-diamine] the same measures were no less than 6670 nM and no less than 6670 nM.
The like results for `Cc1nc(Nc2ccc(SC(F)(F)F)c(Cl)c2)c2nc(Nc3c(Cl)cccc3Cl)sc2n1` [Example 135, N^7-(3-Chloro-4-trifluoromethylsulfanyl-phenyl)-N^2-(2,6-dichloro-phenyl)-5-methyl-thiazolo[5,4-d]pyrimidine-2,7-diamine] were, in that order, 112 nM and 203 nM.

A word on the IC50: it is the concentration needed to halve the response being measured. Low values mean higher potency, high ones lower potency.
